# In patent US6855707B2, “Method for the treatment of lipid and glucose metabolism disorders” (Pliva D.D., priority 1996, dated 2005):
# Columns and labels:
# ob/ob mice = assay: Example 1: two-week treatment of female ob/ob mice (40-70 g) at light onset; assay type: in vivo; details: single drug, two weeks at light onset
# Method: Female ob/ob mice (40-70 g bw) were treated for two weeks with either 1) bromocriptine (11 mg/kg) at light onset, 2) SKF38393 (20 mg/kg) at light onset, 3) bromocriptine plus SKF38393 at light onset, or 4) vehicle at light onset.
# C57BL/6 ob/ob mice = assay: Example 2: two-week treatment of C57BL/6 ob/ob mice at 1 HALO; assay type: in vivo; details: for reduction of plasma free fatty acid level / reduction of plasma glucose concentration / reduction of plasma insulin level / reduction of plasma triglyceride level: mouse, in vivo; for Food Consumption / Plasma FFA / Plasma Glucose / Plasma Insulin / Plasma TG / Whole Body Lipid-Glycerol (% BW) / Whole Body Lipid-Glycerol (g) / Whole Body Protein (% BW) / Whole Body Protein (g) / Final Body Weight: ob/ob mice, two weeks; for Final Body Weight: sacrificed 24-26 hours after last treatment; for reducing body weight gain: single drug 10 mg/kg, two weeks at 1 HALO
# Method: Different groups of 6-week old C57BL/6 ob/ob mice (lacking a functional leptin protein) were treated with either bromocriptine (“BC”) (10 mg/kg BW), SKF38393 (“SKF”) (10 mg/kg BW), both drugs, or vehicle for two weeks at 1 hour after light onset (HALO). Animals were held on 12-hour daily photoperiods and allowed to feed ad libitum. Food consumption was monitored daily for 3 days before the initiation of treatment throughout the 14-day treatment period. Animals were sacrificed between 1 and 3 HALO on the day following the final treatment (i.e., 24-26 hours after last injection) and plasma was collected for the analyses of insulin, glucose, and lipids while the carcasses were solubilized in ethanolic KOH and analyzed for protein and lipid content. Bromocriptine and SKF38393, individually, were ineffective in reducing body weight gain where as SKF, but not BC, reduced food consumption (19%, P<0.01). However, the combined treatment of bromocriptine and SKF38393 (BC/SKF) decreased food consumption by 46% (from 4.8±0.2 to 2.6±g/day; P<0.001) and body weight by 15% (from a 3.2 g increase in controls to a 4.3 g decrease; P<0.005) in 14 days of treatment (FIG. 16). Relative to controls, in absolute terms, the lipid content of the BC/SKF treated animals was decreased by 40% (from 4.2±0.2 to 2.5±0.3 g glycerol/animal; P<0.0003) whereas the protein content increased 8% (from 3.7±0.08 to 4.0±0.08 g/animal; P<0.05). […] This effect on body composition was observed by SKF (P<0.003) or BC (P<0.04) treatments alone, although to a lesser extent than by BC/SKF combination (P<0.05).
# [1] = timed bromocriptine monotherapy, diastolic blood pressure; assay type: in vivo; details: humans, 4.8 mg/day at 8:00 AM
# From the text: The benefits of the invention are not limited to modifying and regulating lipid and glucose metabolism. Other bodily functions, such as blood pressure, can be beneficially modified and regulated by timed administration of a D2 agonist (as monotherapy) in the dosage range disclosed above. […] Conjoined administration of a dopamine D1 agonist and […]
# HMG-CoA reductase = molecular target: T1, HMG-CoA reductase (Homo sapiens, UniProt P04035); details: in vivo; cited from earlier work
# T1 sequence (P04035 1-888): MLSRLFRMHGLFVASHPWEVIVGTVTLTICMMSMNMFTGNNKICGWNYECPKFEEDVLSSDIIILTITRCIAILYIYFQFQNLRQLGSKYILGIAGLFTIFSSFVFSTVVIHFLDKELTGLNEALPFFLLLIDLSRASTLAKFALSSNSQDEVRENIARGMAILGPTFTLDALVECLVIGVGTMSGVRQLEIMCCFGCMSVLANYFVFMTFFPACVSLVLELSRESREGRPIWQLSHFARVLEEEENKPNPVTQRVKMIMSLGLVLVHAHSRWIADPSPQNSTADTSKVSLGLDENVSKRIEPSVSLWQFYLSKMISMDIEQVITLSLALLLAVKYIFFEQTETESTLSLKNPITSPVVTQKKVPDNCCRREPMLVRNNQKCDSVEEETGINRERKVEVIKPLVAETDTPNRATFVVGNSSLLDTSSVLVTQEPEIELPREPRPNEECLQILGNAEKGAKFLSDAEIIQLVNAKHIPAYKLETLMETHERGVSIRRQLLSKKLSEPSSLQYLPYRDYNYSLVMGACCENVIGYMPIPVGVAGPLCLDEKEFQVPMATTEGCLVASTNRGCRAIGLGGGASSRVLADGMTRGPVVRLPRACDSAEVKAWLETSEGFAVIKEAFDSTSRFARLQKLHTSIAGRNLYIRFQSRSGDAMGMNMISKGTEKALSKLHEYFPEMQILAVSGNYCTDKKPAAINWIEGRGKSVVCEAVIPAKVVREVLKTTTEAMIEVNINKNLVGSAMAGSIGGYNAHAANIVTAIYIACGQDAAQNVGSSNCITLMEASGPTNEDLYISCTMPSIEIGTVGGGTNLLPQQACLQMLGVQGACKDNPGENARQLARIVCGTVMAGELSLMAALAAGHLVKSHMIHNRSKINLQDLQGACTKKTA
SMILES,"reductions in hyperphagia, body weight gain, and obesity (ob/ob mice)","reduction of food consumption (C57BL/6 ob/ob mice; BC 10 mg/kg, SKF 10 mg/kg, 14 days) [%]",reduction of plasma free fatty acid level (C57BL/6 ob/ob mice),reduction of plasma glucose concentration (C57BL/6 ob/ob mice) [%],reduction of plasma insulin level (C57BL/6 ob/ob mice),reduction of plasma triglyceride level (C57BL/6 ob/ob mice),Food Consumption (C57BL/6 ob/ob mice),Plasma FFA (C57BL/6 ob/ob mice),Plasma Glucose (C57BL/6 ob/ob mice),Plasma Insulin (C57BL/6 ob/ob mice),Plasma TG (C57BL/6 ob/ob mice),Whole Body Lipid-Glycerol (% BW) (C57BL/6 ob/ob mice),Whole Body Lipid-Glycerol (g) (C57BL/6 ob/ob mice),Whole Body Protein (% BW) (C57BL/6 ob/ob mice),Whole Body Protein (g) (C57BL/6 ob/ob mice),Final Body Weight (C57BL/6 ob/ob mice),reducing body weight gain (C57BL/6 ob/ob mice),diastolic blood pressure [1],increase in HDL concentrations (HMG-CoA reductase)
Oc1cc2c(cc1O)C(c1ccccc1)CNCC2 (centres unmarked) [SKF38393],moderate reductions,19,"neither BC nor SKF individually, reduced",43,not affected,"neither BC nor SKF individually, reduced","3.9 ± 0.07^3,4,5 g/day",671 ± 36^3 uM,218 ± 22^2 mg/dl,50 ± 13 ng/mL,234 ± 22^1 mg/dl,6.0 ± 0.2^1 % BW,3.1 ± 0.1^1 g,7.9 ± 0.1^1 % BW,4.1 ± 0.04^2 g,52 ± 0.7^2 g,ineffective,–,–
"CC(C)C[C@H]1C(=O)N2CCC[C@H]2[C@]2(O)O[C@](NC(=O)[C@@H]3C=C4c5cccc6[nH]c(Br)c(c56)C[C@H]4N(C)C3)(C(C)C)C(=O)N12 [bromocriptine, 2-bromo-α-ergocriptine]",moderate reductions,–,"neither BC nor SKF individually, reduced",31,50%,"neither BC nor SKF individually, reduced","4.5 ± 0.2^2,5 g/day",818 ± 64^2 uM,262 ± 25^1 mg/dl,30 ± 4^2 ng/ml,405 ± 101 mg/dL,7.0 ± 0.2^1 % BW,3.7 ± 0.1^1 g,7.5 ± 0.1^1 % BW,4.0 ± 0.1^1 g,53 ± 0.7^2 g,ineffective,decrease significantly,–
CC[C@H](C)C(=O)O[C@H]1C[C@@H](C)C=C2C=C[C@H](C)[C@H](CC[C@@H]3C[C@@H](O)CC(=O)O3)[C@H]21 [lovastatin],–,–,–,–,–,–,–,–,–,–,–,–,–,–,–,–,–,–,5-10%
